pIC50: −log10 of the molar value.
target: CDK2/Cyclin E1 (Homo sapiens (Human), UniProt P24941); experiment: CDK2/Cyclin E1 HTRF enzyme activity assay; type: biochemical; details: 1 mM ATP
Protocol: Assays are conducted in white 384-well polystyrene plates in a final reaction volume of 8 μL. […] HTRF signals are read after 1 hour at room temperature on a PHERAstar FS plate reader (BMG Labtech). Data is analyzed with IDBS XLFit and GraphPad Prism 5.0 software using a three or four parameter dose response curve to determine IC50 for each compound.

pIC50, > 7.30:
[2H]C([2H])([2H])NCc1ccc(-n2cc(-c3nc(N[C@H]4CCN(S(=O)(=O)c5cn(C)cn5)C[C@H]4C)ncc3C#N)cn2)c(Cl)c1 [Example 148, 4-(1-(2-Chloro-4-(((methyl-d3)amino)methyl)phenyl)-1H-pyrazol-4-yl)-2-(((3R,4S)-3-methyl-1-((1-methyl-1H-imidazol-4-yl)sulfonyl)piperidin-4-yl)amino)pyrimidine-5-carbonitrile]
[2H]C([2H])([2H])NCc1ccc(-n2cc(-c3nc(NC4CCN(S(=O)(=O)c5cnn(C)c5)CC4)ncc3C#N)cn2)c(C)n1 [Example 149, 2-((1-((1-Methyl-1H-pyrazol-4-yl)sulfonyl)piperidin-4-yl)amino)-4-(1-(2-methyl-6-(((methyl-d3)amino)methyl)pyridin-3-yl)-1H-pyrazol-4-yl)pyrimidine-5-carbonitrile]
[2H]C([2H])([2H])NCc1ccc(-n2cc(-c3nc(N[C@H]4CCN(S(=O)(=O)c5cn(C)cn5)C[C@H]4C)ncc3C#N)cn2)c(C)n1 [Example 150, 2-(((3R,4S)-3-Methyl-1-((1-methyl-1H-imidazol-4-yl)sulfonyl)piperidin-4-yl)amino)-4-(1-(2-methyl-6-(((methyl-d3)amino)methyl)pyridin-3-yl)-1H-pyrazol-4-yl)pyrimidine-5-carbonitrile]
Cc1nc(CNC(C)C)ccc1-n1cc(-c2nc(NC3CCN(S(=O)(=O)c4cn(C)cn4)CC3)ncc2C#N)cn1 [Example 151, 4-(1-(6-((Isopropylamino)methyl)-2-methylpyridin-3-yl)-1H-pyrazol-4-yl)-2-((1-((1-methyl-1H-imidazol-4-yl)sulfonyl)piperidin-4-yl)amino)pyrimidine-5-carbonitrile]
Cc1nc(CNC(C)(C)C)ccc1-n1cc(-c2nc(NC3CCN(S(=O)(=O)c4cn(C)cn4)CC3)ncc2C#N)cn1 [Example 152, 4-(1-(6-((tert-Butylamino)methyl)-2-methylpyridin-3-yl)-1H-pyrazol-4-yl)-2-((1-((1-methyl-1H-imidazol-4-yl)sulfonyl)piperidin-4-yl)amino)pyrimidine-5-carbonitrile]
Cc1nc(CNC(C)C)ccc1-n1cc(-c2nc(NC3CCN(S(=O)(=O)C4CC4)CC3)ncc2C#N)cn1 [Example 153, 2-((1-(Cyclopropylsulfonyl)piperidin-4-yl)amino)-4-(1-(6-((isopropylamino)methyl)-2-methylpyridin-3-yl)-1H-pyrazol-4-yl)pyrimidine-5-carbonitrile]
N#Cc1cnc(N[C@H]2CCN(S(=O)(=O)C3CC3)C[C@H]2F)nc1-c1cnn(-c2ccc(CN[C@H]3C[C@@H](C#N)C3)cc2Cl)c1 [Example 154, 4-(1-(2-Chloro-4-((((1s,3s)-3-cyanocyclobutyl)amino)methyl)phenyl)-1H-pyrazol-4-yl)-2-(((3R,4S)-1-(cyclopropylsulfonyl)-3-fluoropiperidin-4-yl)amino)pyrimidine-5-carbonitrile]
C[C@]1(NCc2ccc(-n3cc(-c4nc(N[C@H]5CCN(S(=O)(=O)C6CC6)C[C@H]5F)ncc4C#N)cn3)c(Cl)c2)C[C@H](O)C1 [Example 155, 4-(1-(2-chloro-4-((((1r,3r)-3-hydroxy-1-methylcyclobutyl)amino)methyl)phenyl)-1H-pyrazol-4-yl)-2-(((3R,4S)-1-(cyclopropylsulfonyl)-3-fluoropiperidin-4-yl)amino)pyrimidine-5-carbonitrile]
N#Cc1cnc(N[C@H]2CCN(S(=O)(=O)C3CC3)C[C@H]2F)nc1-c1cnn(-c2ccc(CNCC3(O)CC3)cc2Cl)c1 [Example 156, 4-(1-(2-Chloro-4-((((1-hydroxycyclopropyl)methyl)amino)methyl)phenyl)-1H-pyrazol-4-yl)-2-(((3R,4S)-1-(cyclopropylsulfonyl)-3-fluoropiperidin-4-yl)amino)pyrimidine-5-carbonitrile]
